Measured values as given in US20210179577A1, “AROMATIC SULFONAMIDE DERIVATIVES FOR THE TREATMENT OF ISCHEMIC STROKE” (Bayer Aktiengesellschaft, priority 2017, published 2021).
Values joined by “and” are separate entries in the source; they are usually repeats but may differ in a detail not shown here. Identical values can stand only once.

Key:
endogenous P2X4 channels = biological target: T1, endogenous P2X4 channels (Homo sapiens, UniProt Q99571); experiment: Human Monocyte P2X4 Assay (FLIPR); format: cell-based; conditions: primary human monocytes, 3 μM BzATP, one value per donor; for IC50: read-out: Human P2X4 Monocytes (FLIPR Assay) IC50 for different donors; for Emax: read-out: Human P2X4 Monocytes (FLIPR Assay) Efficacy for different donors
T1 construct: measure calcium influx through endogenous P2X4 channels into primary human monocytes; endogenous in cells; host or cells: primary human monocytes isolated from donor PBMCs
T1 sequence (Q99571 1-388): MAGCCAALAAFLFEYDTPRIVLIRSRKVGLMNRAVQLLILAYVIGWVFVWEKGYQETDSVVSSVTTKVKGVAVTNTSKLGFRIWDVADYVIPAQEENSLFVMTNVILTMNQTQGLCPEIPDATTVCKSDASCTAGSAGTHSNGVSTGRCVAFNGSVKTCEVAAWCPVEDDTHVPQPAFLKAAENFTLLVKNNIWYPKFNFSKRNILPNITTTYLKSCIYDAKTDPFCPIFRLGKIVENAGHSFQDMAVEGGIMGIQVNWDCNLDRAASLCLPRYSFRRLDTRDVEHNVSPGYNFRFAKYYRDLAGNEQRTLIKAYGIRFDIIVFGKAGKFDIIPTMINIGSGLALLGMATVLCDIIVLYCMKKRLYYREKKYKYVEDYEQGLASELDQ
Procedure: The principle of the assay is to measure calcium influx through endogenous P2X4 channels into primary human monocytes, following activation by 2′,3′-O-(4-benzoyl-benzoyl)-ATP (Bz-ATP). Intracellular calcium concentration changes were measured with a Flipr™ (Molecular Devices) device using a calcium sensitive dye (Fluo-8). In primary monocytes P2X4 is located at the lysosome membrane, therefore exocytosis has to be triggered to expose P2X4 at the cellular membrane.
Human peripheral blood mononuclear cells (PBMCs) from anticoagulated blood (blood cells, BC) were isolated via density gradient centrifugation. Whole blood was diluted 1:3 with PBS. Samples of 30 mL were layered carefully on top of 15 mL Biocoll (BIOCHROM) in 50 mL centrifuge tubes (Falcon). Tubes were centrifuged at 914×g for 25 min at RT without brake. The PBMC layer was removed with a 10 mL pipette and transferred into tubes with ice-cold PBS in a total volume of 50 mL. Cells were washed twice by pelleting at 300×g at 4° C., for 10 min and for 5 min respectively. PBMCs were re-suspended in 10 mL medium (X-vivo, Biozym Scientific) and counted in a Neubauer chamber.
Monocytes were isolated by negative selection using the Monocyte isolation kit II from Miltenyi (#130-091-153) according to the instructions. Isolation should be done fast and cells and solutions should be kept on ice at any time. PBMCs in batches of 10exp8 cells were pelleted (300×g, 10 min) and re-suspended with 300 μL MACS buffer in a 50 mL Falcon tube. FcR Blocking reagent (100 μl) and Biotin-Ab (100 μl) were added, mixed and incubated on ice for 10 min. MACS buffer (300 μL) and anti-Biotin Micro-beads (100 μL) were added, mixed and incubated on ice for 15 min. Cells were washed by pelleting (300×g for 10 min) and re-suspended in 500 μL MACS buffer. For each batch one separation column was placed in the MACS separator and rinsed with 3 mL MACS buffer. The cell suspension was added to the column, followed by 3×3 mL MACS buffer for washing, and the eluent containing the monocytes was collected. Cells were pelleted (300×g for 10 min), re-suspended in X-vivo medium and counted. Monocytes were seeded into fibronectin-coated micro-plates (384-well, black, flat transparent bottom; Corning #3848) at a density of 30,000 cells/well in 50 μL, and cultivated over night (37° C., 5% CO2).
Test substances were dissolved in 100% DMSO at a stock concentration of 10 mM and stored at −20° C. in aliquots. Serial dilutions (2×) were prepared in DMSO and diluted 500× with assay buffer to generate the antagonist plate. In the Flipr measurement, 10 μL per well were transferred (4× dilution) and a final top concentrations of 5 μM and 0.05% DMSO were obtained in the assay. Agonist BzATP was stored at 10 mM in aliquots and diluted to an intermediate concentration of 15 μM to generate the agonist plate. In the Flipr measurement, 10 μL per well were transferred (5× dilution) so that a final assay concentration of 3 μM was obtained.
For the experiment, the medium of the cell plate was discarded manually and 70 μL/well loading buffer was added and incubated for 1 h (37° C., 5% CO2). Loading buffer contained HBSS (w/o calcium/magnesium), 10 mM Hepes pH 7.4, 5 μM Fluo-8 (AM) (Tebu-bio) and 50 mM methylamine (Sigma) to trigger exocytosis. Loading buffer was discarded manually and 30 μL/well low-calcium assay buffer (5 mM KCl, 145 mM NaCl, 0.5 mM CaCl2), 13 mM glucose, 10 mM Hepes pH 7.4) was added. The antagonist plate was transferred (10 μL/well) and after 15 min at RT the agonist plate (10 μL/well) was transferred.
Agonist addition was recorded for 240 seconds after a 10 second baseline. For analysis, a baseline correction was applied, and the maximum of the curve was extracted. Data were normalized towards 0% inhibition (signal at 3 μM BzATP) and 100% inhibition (absence of BzATP stimulation) and fitted with a four-parameter sigmoidal inhibition curve using Prism Graph Pad to obtain IC50 values.

human P2X4 = biological target: T2, human P2X4 (Homo sapiens, UniProt Q99571); experiment: FLIPR assay, human P2X4 1321N1 Astrocytoma Cells; format: cell-based; design: expressed in transfected cells; conditions: agonist Mg-ATP at EC80
T2 sequence (Q99571 1-388): T1 sequence (Q99571 1-388)
Procedure: 1321N1 Astrocytoma cells stably expressing human P2X4 or rat P2X4 or mouse P2X4 were plated in Collagen ITO-treated microplate at a seeding density of 10000 cells/well and incubated overnight. P2X4 function was assessed by measuring intracellular calcium changes using the calcium-chelating dye Fluo8-AM (Molecular Devices) on a fluorescent imaging plate reader (FLEX/FLIPR station; Molecular Devices). On the day of the assay, the medium was removed and the cells were incubated for 30 min at […] and 5% CO2 in 30 μL of dye buffer (Hank's balanced salt solution, 10 mM HEPES, 1.8 mM CaCl2, 1 mM MgCl2, 2 mM probenecid, 5 mM D-glucose monohydrate, 5 μM Fluo8-AM, pH=7.4). Compounds diluted in probenecid buffer (Hank's balanced salt solution, 10 mM HEPES, 1.8 mM CaCl2, 1 mM MgCl2, 2 mM probenecid, 5 mM D-glucose monohydrate, pH=7.4) were added in a volume of 10 μL and allowed to incubate for 30 min at room temperature. The final assay DMSO concentration was 0.25%. The agonist, Mg-ATP (Sigma), was added in a volume of 10 μL at a concentration representing the EC80 value. EC80 was determined to be 0.5 μM for human and mouse P2X4 and 5 μM for rat P2X4. The fluorescence was measured for an interval of 120 sec at 2 sec intervals. The excitation and emission wavelengths used to monitor fluorescence were 470-495 nm and 515-575 nm, respectively. The data was analyzed based on the increase in peak relative fluorescence units (RFU) compared to the basal fluorescence and the data was normalized to the agonist control. The compounds were tested in triplicates per plate and mean values were plotted in Excel XLFit to determine IC50 values, percentage of maximal inhibition and the Hill coefficients.

Row | SMILES | IC50 (endogenous P2X4 channels) | Human P2X4 1321N1 Astrocytoma Cells (FLIPR Assay) avg Efficacy (human P2X4) | IC50 (human P2X4) | Emax (endogenous P2X4 channels)
1 | NS(=O)(=O)c1cc(NC(=O)Cc2ccccc2Cl)ccc1-c1cnn(C(F)F)c1 [Example 326, 2-(2-Chlorophenyl)-N-{4-[1-(difluoromethyl)-1H-pyrazol-4-yl]-3-sulfamoylphenyl}acetamide] | 407 nM and 167 nM and 149 nM and 45 nM and 49 nM | 80% | 46 nM | 
2 | NS(=O)(=O)c1cc(NC(=O)Cc2ccccc2Cl)ccc1-n1cc(C(F)(F)F)cn1 [Example 19, 2-(2-Chlorophenyl)-N-{3-sulfamoyl-4-[4-(trifluoromethyl)-1H-pyrazol-1-yl]phenyl}acetamide] | 59 nM (2×) and 21 nM and 76 nM and 45 nM | 60% | 57 nM | 

Other lines, results leading:

Row | IC50 (endogenous P2X4 channels) | Human P2X4 1321N1 Astrocytoma Cells (FLIPR Assay) avg Efficacy (human P2X4) | IC50 (human P2X4) | Emax (endogenous P2X4 channels) | SMILES
3 | 263 nM and 251 nM and 434 nM and 93 nM and 50 nM and 207 nM |  |  |  | NS(=O)(=O)c1cc(NC(=O)Cc2ccccc2Cl)cnc1-n1cc(C(F)(F)F)cn1 [Example 380, 2-(2-Chlorophenyl)-N-{5-sulfamoyl-6-[4-(trifluoromethyl)-1H-pyrazol-1-yl]pyridin-3-yl}acetamide]
4 | 290 nM and 182 nM |  |  | 71% | NS(=O)(=O)c1cc(NC(=O)Cc2ccccc2Cl)ccc1-n1cc(F)cn1 [Example 26, 2-(2-Chlorophenyl)-N-[4-(4-fluoro-1H-pyrazol-1-yl)-3-sulfamoylphenyl]acetamide]
5 | 105 nM and 32 nM and 71 nM | 83% | 64 nM | 88% | N#Cc1cnn(-c2ccc(NC(=O)Cc3ccccc3Cl)cc2S(N)(=O)=O)c1 [Example 39, 2-(2-Chlorophenyl)-N-[4-(4-cyano-1H-pyrazol-1-yl)-3-sulfamoylphenyl]acetamide]
